Literature values as cited in patent US11964046B2, “Topical composition for the control of pain in animals” (priority 2016, dated 2024).

Tested on: piglets
[1] = lidocaine injected at least three minutes prior to castration, p<0.001

CCN(CC)CC(=O)Nc1c(C)cccc1C [lidocaine]
pain during castration (study conclusion) (injected): reduced pain during castration
intensity of calls during castration [1]: lower intensity
resistance movements during castration [1]: less resistance movements
